Reference: ChEMBL document CHEMBL5257084, “Novel inhibitors of Rickettsia prowazekii methionine aminopeptidase from the Malaria Box” (Bioorg Med Chem Lett, 2023)

What was measured:
[1] = Inhibition of Rickettsia prowazekii Methionine aminopeptidase 1; assay type: single protein
Rickettsia prowazekii = assay: Inhibition of Rickettsia prowazekii Methionine aminopeptidase 1 at 10 uM relative to control

CCn1c(CN2CCN(Cc3ccccc3)CC2)nc2cc(NC(=O)c3cccs3)ccc21
IC50 [1]: 9 µM | inhibition (Rickettsia prowazekii): > 50%

O=C(NCC(c1ccsc1)N1CCCCCC1)c1ccc(C(F)(F)F)cc1 (stereo not given)
IC50 [1]: 15 µM | inhibition (Rickettsia prowazekii): > 50%

Cc1ccc(N2C3c4ccccc4N(S(=O)(=O)c4ccc(C)cc4)C2c2ccccc2N3S(=O)(=O)c2ccc(C)cc2)cc1
IC50 [1]: 0.8 µM | inhibition (Rickettsia prowazekii): > 50%

COc1ccc(/C=C2\SC(=N)N(c3ccccc3OC)C2=O)cc1
IC50 [1]: 4.4 µM | inhibition (Rickettsia prowazekii): > 50%

COc1cccc(NC(=O)[C@H](C(C)C)n2c(=O)[nH]c3ccccc3c2=O)c1
IC50 [1]: 22 µM | inhibition (Rickettsia prowazekii): > 50%

CCCc1c(CC)c(=N)c2ccccc2n1C
IC50 [1]: 1.6 µM | inhibition (Rickettsia prowazekii): > 50%

c1ccc(Cn2c(/N=N/c3c(Nc4ccccc4)ccc4ccccc34)nc3ccccc32)cc1
IC50 [1]: 1.9 µM | inhibition (Rickettsia prowazekii): > 50%

CC(C)OCc1cc(CN2CCN(c3cccc(Cl)c3)CC2)c(O)c2ncccc12
IC50 [1]: 3.8 µM | inhibition (Rickettsia prowazekii): > 50%

COc1ccc(C2=C(c3ccc(OC)cc3)C3(c4ccccc4)C(=O)C2(c2ccccc2)C2C(=O)N(c4ccc(C)cc4)C(=O)C23)cc1 (stereo not given)
IC50 [1]: 4 µM | inhibition (Rickettsia prowazekii): > 50%

CSC1=N/C(=N\c2c(C)cccc2C)C2(CCC(C(C)(C)C)CC2)N1c1ccc(Cl)cc1 (stereo not given)
IC50 [1]: 9 µM | inhibition (Rickettsia prowazekii): > 50%

COc1ccc(-c2c(C)nn3c(N)c(C#N)cnc23)cc1OC
IC50 [1]: 9 µM | inhibition (Rickettsia prowazekii): > 50%

O=C(NC(c1ccccc1)c1ccc2cccnc2c1O)c1ccccc1 (stereo not given)
IC50 [1]: 12 µM | inhibition (Rickettsia prowazekii): > 50%

O=C(O)c1ccc(-c2ccccc2Cl)o1
IC50 [1]: 2.4 µM
